Assay results reported in patent US7462605B2, “Phosphoramidate compounds and methods of use” (Celmed Oncology (USA), Inc., priority 2002, dated 2008).

Key:
rHuTS = target: T1, rHuTS (Homo sapiens, UniProt P04818); assay: Inhibition of rHuTS reactions by Tomudex and 5-FdUMP (initial rates); format: biochemical; settings: for initial rate of rHuTS reaction with inhibitor / rate as % of No Inhibitor: inhibitor 500 nM
T1 construct: His tag (from pET-28a(+)) (N); made in house; host or cells: E. coli BL21 (DE3)/pET-28a(+)
Protocol: (§1) Enzyme Assays and Kinetic Measurements. Thymidylate synthase assays were done in 96 well Costar UV transparent plates in a reaction volume of 200 μL, consisting of 40 mM Tris pH 7.5, 25 mM MgCl2, 1 mM EDTA, 25 mM-mercaptoethanol, 125M dUMP, and 65 μM N5, N10-methylene tetrahydrofolate indicated. Tetrahydrofolate stock solutions were prepared by dissolving tetrahydrofolic acid (Sigma) directly into 0.2M Tris pH 7.5, 0.5 M-mercaptoethanol; stock solutions were stored at −80° C. N5, N10-methylene tetrahydrofolate was prepared by adding 12 μl of 3.8% formaldehyde to 1 ml of a 0.65 mM solution of tetrahydrofolate and incubating for 5 minutes at 37° C. N5, N10-methylene tetrahydrofolate was kept on ice and used within 2 hours of preparation.
Conversion of BVdUMP to fluorescent product(s) by thymidylate synthase was measured in 200 μl thymidylate synthase reactions containing 125M BVdUMP in 96 well Dynex Microfluor Black “U” bottom microtiter plates using an excitation wavelength of 340 nm and emission wavelength of 595 nm. Fluorescence was measured with a Tecan Spectrafluor Plus fluorimeter.

[1] = target: T2, rHuTS (recombinant human thymidylate synthase) (Homo sapiens, UniProt P04818); assay: Enzyme kinetics of rHuTS with dUMP and BVdUMP; format: biochemical; settings: rHuTS
T2 construct: His tag (from pET-28a(+)) (N); made in house; host or cells: E. coli BL21 (DE3)/pET-28a(+)
Protocol: Enzyme Preparation. Cloned human thymidylate synthase plasmid pBCHTS was subcloned into E. coli. BL21 (DE3)/pET-28a(+) (Novagen) using the Ndel ñSacI insertion site, in order to add an amino terminal His tag. Enzyme was expressed in E. coli. by induction with IPTG, and purified by affinity chromatography on a Ni^2+ His Bind metal chelation resin (Novagen). The column Ni^2+ His Bind metal chelation column was washed with 20 mM Tris pH 7.9, 5 mM imidazole, 0.5M NaCl; thymidylate synthase activity was eluted with 20 mM Tris pH 7.9, 60 mM imidazole, 0.5M NaCl.
as §1
Enzyme kinetic constants (Km and Vmax) were determined for the human thymidylate synthase substrates dUMP and BVdUMP using the enzyme assay conditions described above. The initial rates of the enzyme reactions was determined by measuring the increase in A340 for the reaction with dUMP, and decrease in A294 for the reaction with BVdUMP. The catalytic efficiency of the enzyme (Kcat/Km) was calculated from the kinetic constants Km and Vmax.

Lactobacillus casei TS = target: T3, Lactobacillus casei TS (Lacticaseibacillus casei, UniProt P00469); settings: cited from earlier work
T3 sequence (P00469 1-316): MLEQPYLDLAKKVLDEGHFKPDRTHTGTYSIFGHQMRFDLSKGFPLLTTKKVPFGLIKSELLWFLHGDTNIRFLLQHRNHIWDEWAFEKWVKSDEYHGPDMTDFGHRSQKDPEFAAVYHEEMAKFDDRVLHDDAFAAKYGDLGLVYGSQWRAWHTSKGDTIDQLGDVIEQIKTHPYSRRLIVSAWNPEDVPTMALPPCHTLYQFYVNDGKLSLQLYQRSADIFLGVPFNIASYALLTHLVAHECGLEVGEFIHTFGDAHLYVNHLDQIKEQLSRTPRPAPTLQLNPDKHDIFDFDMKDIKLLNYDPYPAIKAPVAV

MCF7TDX cells = assay: 96-well combination cytotoxicity assay (crystal violet) with NB1011, MCF7TDX; format: cell-based, human; settings: drug combined with NB1011, MCF7TDX; for CI (average combination index): 96-well crystal violet, 72 hour; on Interaction: key: Syn = synergy; Ant = antagonism; Add = additivity
Protocol: Cell lines: Normal human colon epithelial cells (CCD18co) and skin fibroblasts (Det55 1) were purchased from ATCC (Rockville,Md.). MCF7TDX, human breast carcinoma cells resistant to 2 μM Tomudex were obtained from Dr. Patrick Johnston, Queens University, Belfast.
The medium was renewed or the cells were passaged about every three days to maintain optimal growth conditions. Normal cells were passaged a maximum of 15 times to avoid senescence.
Cytotoxicity Studies: 384-well interaction screening assay. 500 cells per well were transferred to a 384-well tissue culture plate (Corning Inc., Corning, N.Y.) and allowed to attach for 24 hours in standard culture conditions. […] 96-well combination cytotoxicity assay. […] Compounds were then applied in duplicate half log serial dilutions. Each compound was tested separately, and mixed together at a single molar ratio approximately equal to the ratio of the individual IC50 values. After an additional 72 hour incubation, cells were washed once with PBS and stained with 0.5% crystal violet in methanol. Plates were washed gently in water to remove unbound stain and allowed to dry overnight. […] Sigmoid curves were fit according to the Hill inhibitory Emax model, and IC50 calculated as the average of three or more separate determinations. […] Briefly, the ICso and the slope parameter (m) for each agent alone were determined from the median effect plot, an x,y plot of log(D) vs log (fa/fu) based on Chou's median effect equation: fa/fu=(D/Dm)^m [Equation 1]
(§2) Only experiments with linear correlation coefficients (r) >0.9 were accepted for analysis. A combination index (CI) was then calculated to assess synergism or antagonism according to the following equation which assumes an independent mechanism of drug action (mutual exclusivity): CI=(D)1/(Dx)1+(D)2/(Dx)2+(D)1(D)2/(Dx)1 (Dx)2 [Equation 2]
(§3) where (D)1 and (D)2 are the concentrations of drug 1 and drug 2 which combined produce x% inhibition, and (Dx)1 and (Dx)2 are the concentrations of each drug which alone produce x% inhibition. CI=1 indicates an additive interaction, CI<1 indicates synergy, and CI>1 indicates antagonism. For each experiment Cl's from several different effect levels and concentrations of a constant molar ratio were averaged.

[2] = test system: CCD18co normal colon epithelial cells; assay: 96-well combination cytotoxicity assay (crystal violet) with NB1011, CCD18co; format: cell-based, human; settings: drug combined with NB1011, CCD18co; for CI (average combination index): 96-well crystal violet, 72 hour
Protocol: (§4) Cell lines: Normal human colon epithelial cells (CCD18co) and skin fibroblasts (Det55 1) were purchased from ATCC (Rockville,Md.). MCF7TDX, human breast carcinoma cells resistant to 2 μM Tomudex were obtained from Dr. Patrick Johnston, Queens University, Belfast. […] The MCF7TDX and the H630R10 cell lines have been previously described in Drake, J. C. et al. (1996) and Copur, S. et al. (1995) respectively.
(§5) Culture Conditions: All cells were cultured under standard conditions of 37° C., 95% humidified air, 5% CO2 in RPMI 1640 culture medium containing 10% fetal calf serum (Life Technologies) and penicillin/streptomycin/fungizone. […] The medium was renewed or the cells were passaged about every three days to maintain optimal growth conditions. Normal cells were passaged a maximum of 15 times to avoid senescence.
(§6) Cytotoxicity Studies: 384-well interaction screening assay. 500 cells per well were transferred to a 384-well tissue culture plate (Corning Inc., Corning, N.Y.) and allowed to attach for 24 hours in standard culture conditions. Compounds were then applied in a bidirectional (checker board) pattern (Chou, T. C. and Talalay, P. (1984)). Following a 5-day incubation, the redox indicator dye, alamarBlue (AccuMed International, Westlake, Ohio) was added to each well at a 10% v/v ratio, and fluorescence was monitored at 535 excitation, 595 emission. Cytotoxic effect levels and drug interactions were assessed by the combination index method (Chou, T. C. and Talalay, P. (1984) and Bible, K. C. et al. (1997)), described briefly below. 96-well combination cytotoxicity assay. Exponentially growing cells were transferred at a density of 1.0-5.5×10^3 cells per well to a 96-well tissue culture plate and allowed to attach for 24 hours. Compounds were then applied in duplicate half log serial dilutions. Each compound was tested separately, and mixed together at a single molar ratio approximately equal to the ratio of the individual IC50 values. After an additional 72 hour incubation, cells were washed once with PBS and stained with 0.5% crystal violet in methanol. Plates were washed gently in water to remove unbound stain and allowed to dry overnight. […] Sigmoid curves were fit according to the Hill inhibitory Emax model, and IC50 calculated as the average of three or more separate determinations. Where applicable, the combination index for multiple drug effects was calculated according to the median-effect principle (Chou, T. C. and Talalay, P. (1984)) using the CalcuSyn software from Biosoft (Ferguson, Mo.). Briefly, the ICso and the slope parameter (m) for each agent alone were determined from the median effect plot, an x,y plot of log(D) vs log (fa/fu) based on Chou's median effect equation: fa/fu=(D/Dm)^m [Equation 1]
as §2, §3

[3] = test system: Det551 normal skin fibroblasts; assay: 96-well combination cytotoxicity assay (crystal violet) with NB1011, Det551; format: cell-based, human; settings: for Interaction: drug combined with NB1011, Det551; for CI (average combination index): drug combined with NB1011, Det551, 96-well crystal violet, 72 hour; on Interaction: key: Syn = synergy; Ant = antagonism; Add = additivity
Protocol: as §4, §5, §6, §2, §3

[4] = BVdUMP reaction, read-out: Kl (of dUMP)

T2 sequence (P04818 whole entry): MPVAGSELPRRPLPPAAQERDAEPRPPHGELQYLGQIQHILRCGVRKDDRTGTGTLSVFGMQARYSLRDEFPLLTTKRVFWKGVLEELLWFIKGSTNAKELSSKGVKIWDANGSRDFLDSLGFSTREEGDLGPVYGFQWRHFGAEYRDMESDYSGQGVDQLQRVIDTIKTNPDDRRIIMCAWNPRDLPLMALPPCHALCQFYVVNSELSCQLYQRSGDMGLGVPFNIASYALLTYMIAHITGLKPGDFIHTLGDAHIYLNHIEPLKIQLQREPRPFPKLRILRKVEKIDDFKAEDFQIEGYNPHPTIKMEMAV
T1 sequence (P04818 whole entry): as above

With `O=c1[nH]c(=O)n([C@H]2C[C@H](O)[C@@H](COP(=O)(O)O)O2)cc1F` [5-FdUMP] the “initial rate of rHuTS reaction with inhibitor” value (shortened to “initial rate … with inhibitor”) (rHuTS; BVdUMP + THF) was 44 ± 2 RFU/min, the “rate as % of No Inhibitor” value (rHuTS; BVdUMP + THF) was “(40%)” and the “initial rate … with inhibitor” value (rHuTS; BVdUMP − THF) was 93 ± 13 RFU/min. For the same compound, the “rate as % of No Inhibitor” value (rHuTS; BVdUMP − THF) was “(129%)”, the “initial rate … with inhibitor” value (rHuTS; dUMP + THF) was 290 ± 70 nmol/min and the “rate as % of No Inhibitor” value (rHuTS; dUMP + THF) was “(19%)”.

For `O=c1ccn([C@H]2C[C@H](O)[C@@H](COP(=O)(O)O)O2)c(=O)[nH]1` [dUMP], the “initial rate of rHuTS reaction, No Inhibitor” value (rHuTS; dUMP + THF, 30° C., increase in A340) was 1500 ± 20 nmol/min, the Kcat [1] was 0.2 s⁻¹ and the “form of inhibition of the BVdUMP reaction (Michaelis-Menton kinetics)” value [1] was “competitive inhibition”. The Ki [1, 4] was 17.5 µM, the Km ([1]; substrate) was 7.7 µM and the Ki (Lactobacillus casei TS; [4]) was 2 µM. The Kcat (Lactobacillus casei TS) was 6.4 s⁻¹ and the Km (Lactobacillus casei TS; substrate) was 3 µM.

In the case of `O=C1[O][Pt]2([NH][C@@H]3CCCC[C@H]3[NH]2)[O]C1=O` [Oxaliplatin], the Interaction (MCF7TDX cells) is reported as “Ant”.

With `CC[C@]1(O)C[C@@H]2CN(CCc3c([nH]c4ccccc34)[C@@](C(=O)OC)(c3cc4c(cc3OC)N(C)[C@H]3[C@@](O)(C(=O)OC)[C@H](OC(C)=O)[C@]5(CC)C=CCN6CC[C@]43[C@@H]65)C2)C1` [Vinblastine] the Interaction [2] was “Syn”, the Interaction (MCF7TDX cells) was “Ant” and the Interaction [3] was “Syn”.

With `Cc1nc2ccc(CN(C)c3ccc(C(=O)N[C@@H](CCC(=O)O)C(=O)O)s3)cc2c(=O)[nH]1` [Tomudex] the “initial rate … with inhibitor” value (rHuTS; BVdUMP + THF) was 67 ± 3 RFU/min, the “initial rate … with inhibitor” value (rHuTS; BVdUMP − THF) was 34 ± 3 RFU/min and the “initial rate … with inhibitor” value (rHuTS; dUMP + THF) was 690 ± 40 nmol/min.

In the case of `COc1cccc2c1C(=O)c1c(O)c3c(c(O)c1C2=O)C[C@@](O)(C(=O)CO)C[C@@H]3O[C@H]1C[C@H](N)[C@H](O)[C@H](C)O1` [Doxorubicin], the Interaction (MCF7TDX cells) is reported as “Ant”.

In the case of `O=[N+]([O-])c1ccc(CSc2ncnc3c2ncn3C2OC(CO)C(O)C2O)cc1` (stereo not shown) [p-Nitrobenzyl-Thioinosine (NBMPR), p-nitrobenzylthioinosine], the Interaction [2] is reported as “Ant”, the “CI (average combination index)” value [2] is reported as 3.93 and the Interaction (MCF7TDX cells) is reported as “Syn”. The “CI (average combination index)” value (MCF7TDX cells) was 0.57, the Interaction [3] was “Ant” and the “CI (average combination index)” value [3] was 1.43.

With `OCCN(CCO)c1nc(N2CCCCC2)c2nc(N(CCO)CCO)nc(N3CCCCC3)c2n1` [Dipyridamole, dipyridamole] the Interaction [2] was “Ant”, the “CI (average combination index)” value [2] was 1.30 and the Interaction (MCF7TDX cells) was “Syn”. The “CI (average combination index)” value (MCF7TDX cells) was 0.51, the Interaction [3] was “Add” and the “CI (average combination index)” value [3] was 1.17.
